Drawing on ChEMBL document CHEMBL2034963, “Synthesis and pharmacological assessment of diversely substituted pyrazolo[3,4-b]quinoline, and benzo[b]pyrazolo[4,3-g][1,8]naphthyridine derivatives” (Eur J Med Chem, 2011), this text covers IC50, Activity and Ki for seven compounds.

One may read the IC50 as the point on the concentration scale where inhibition reaches its midpoint. Broadly, the Ki is a measure of affinity in units of concentration, obtained from inhibition or displacement. A higher Ki goes with lower affinity.

Test [1] has as its target T1, Acetylcholinesterase (Electrophorus electricus, UniProt O42275).
Description: Inhibition of electric eel AChE preincubated for 10 mins measured after 15 mins by Ellman's method
For another test, the target named is Cholinesterase (Equus caballus, UniProt P81908).
Sequence of Cholinesterase (P81908 whole entry): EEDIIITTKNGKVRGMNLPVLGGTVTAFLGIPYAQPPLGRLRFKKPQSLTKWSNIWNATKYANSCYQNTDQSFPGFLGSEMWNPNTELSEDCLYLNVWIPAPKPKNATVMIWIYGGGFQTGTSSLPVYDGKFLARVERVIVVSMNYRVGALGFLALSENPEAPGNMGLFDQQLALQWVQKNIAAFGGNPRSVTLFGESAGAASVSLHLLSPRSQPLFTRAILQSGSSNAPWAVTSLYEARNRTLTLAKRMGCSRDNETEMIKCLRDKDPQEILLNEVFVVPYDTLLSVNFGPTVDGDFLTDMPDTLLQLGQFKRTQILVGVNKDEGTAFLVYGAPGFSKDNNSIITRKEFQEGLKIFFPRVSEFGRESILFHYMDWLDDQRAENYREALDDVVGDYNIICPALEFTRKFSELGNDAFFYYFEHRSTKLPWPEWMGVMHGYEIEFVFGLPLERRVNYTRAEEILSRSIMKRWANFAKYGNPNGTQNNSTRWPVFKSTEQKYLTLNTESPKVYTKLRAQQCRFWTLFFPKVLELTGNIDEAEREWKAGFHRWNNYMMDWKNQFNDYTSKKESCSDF
Test [2] has as its system SH-SY5Y. Put plainly: Neuroprotective activity in rotenone/oligomycin-induced cell death in human SH-SY5Y cells assessed as LDH release at 10 nM pretreated for 1 hr before rotenone/oligomycin challenge measured after 24 hrs by spectrophotometric method (reference value: 13 %). The test is classed as functional. A general note: LDH in the medium is a marker of cell lysis.

The target in test [3] is T1, Acetylcholinesterase. Put plainly: Mixed type inhibition of electric eel AChE using acetylthiocholine as substrate by Lineweaver-Burk plot analysis.
For test [4], the system named is SH-SY5Y. The test can be described thus: Neuroprotective activity in rotenone/oligomycin-induced cell death in human SH-SY5Y cells assessed as LDH release at 1 uM pretreated for 1 hr before rotenone/oligomycin challenge measured after 24 hrs by spectrophotometric method (reference value: 13 %). The test is classed as functional.
Test [5] has as its system SH-SY5Y. Put plainly: Neuroprotective activity in okadaic acid-induced cell death in human SH-SY5Y cells at 1 uM after 24 hrs by MTT method. The class given is functional, cell-based. A general note: Tetrazolium assays rely on reduction of a dye to a coloured formazan, in cell work by metabolically active cells.

Calls of active or inactive are those of the source. The calls are words filed in the database; no cut-off is given here. Bounds are passed on as bounds.

T1 sequence (O42275 whole entry): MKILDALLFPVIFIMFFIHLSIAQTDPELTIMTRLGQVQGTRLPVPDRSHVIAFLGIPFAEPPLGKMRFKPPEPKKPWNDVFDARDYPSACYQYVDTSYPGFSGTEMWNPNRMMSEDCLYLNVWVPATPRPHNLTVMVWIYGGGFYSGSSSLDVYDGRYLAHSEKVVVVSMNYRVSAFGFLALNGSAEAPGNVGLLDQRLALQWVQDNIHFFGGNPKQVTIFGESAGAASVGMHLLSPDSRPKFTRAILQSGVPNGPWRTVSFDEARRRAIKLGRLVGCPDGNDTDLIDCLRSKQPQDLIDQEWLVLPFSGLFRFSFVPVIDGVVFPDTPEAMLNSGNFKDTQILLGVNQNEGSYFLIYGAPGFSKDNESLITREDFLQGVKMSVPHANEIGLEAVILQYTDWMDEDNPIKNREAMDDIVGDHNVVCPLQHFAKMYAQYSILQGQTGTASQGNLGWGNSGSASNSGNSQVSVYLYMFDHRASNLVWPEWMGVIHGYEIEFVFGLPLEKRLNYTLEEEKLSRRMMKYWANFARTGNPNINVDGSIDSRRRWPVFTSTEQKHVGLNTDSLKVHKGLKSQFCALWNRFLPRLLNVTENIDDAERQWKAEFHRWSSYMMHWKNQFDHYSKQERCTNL

In the case of `CC(=O)Nc1nn(C)c2nc3nc4c(c(N)c3c(-c3ccccc3)c12)CCCC4`, the IC50 against Acetylcholinesterase [1] stood at 0.23 µM; on Cholinesterase, 9 µM.
For `Cn1nc(C(N)=O)c2c(NCCCCCCOc3ccccc3)c3c(nc21)CCCC3`, the figures for the IC50 against Acetylcholinesterase [1] and on Cholinesterase were 9.3 µM and greater than 100 µM, respectively.
For `Cn1nc2nc3c(c(N)c2c1C(N)=O)CCCC3` the same measures were 0.6 µM and 5.4 µM.
With `Cn1nc(C#N)c2c(N)c3c(nc21)CCCC3`, the IC50 came to 1.7 µM against Acetylcholinesterase [1] and 6.3 µM against Cholinesterase.
For `COc1ccc2[nH]cc(CCNC(C)=O)c2c1` [MELATONIN], the Activity in the test with SH-SY5Y [2] was found to be 48%.
The compound `CC(=O)Nc1nn(C)c2nc3nc4c(c(N)c3cc12)CCCC4` displayed a Ki at Acetylcholinesterase [3] of 0.155 µM. The Activity in the test on SH-SY5Y [4] turned out to be 48%. Further, in the test on SH-SY5Y [5], the outcome was inactive. Besides, the IC50 against Acetylcholinesterase [1] worked out at 0.069 µM; at Cholinesterase, 6.3 µM.
For `Cn1nc2nc3c(c(N)c2c1C#N)CCCC3`, the IC50 was 0.57 µM against Acetylcholinesterase [1] and 100 µM on Cholinesterase.
